Assay [1] deals with HssRS-dependent hrtAB expression. Briefly: Luminescence-based assay to monitor HssRS-dependent hrtAB expression (phrtABlux reporter), Newman. In kind it is cell-based, Staphylococcus aureus. The note with it: Newman; for activation at 0.0825 µM: Staphylococcus aureus, NEWMAN, read-out: % Lumi, luminescence induced by the compound compared to the heme control (82.5 nM) in the same plate; for Luminescence: raw luminescence value obtained in a luminometer. Here is the method:
(§1) With reference to Table 1, “Luminescence” refers to the raw luminescence value obtained in a luminomter. “Control (82.5 nm)” refers to the luminescence value obtained from heme at 82.5 nM as a positive control in the same plate as the experimental. “% lum” is the percentage of luminescence induced by the compound as compared to the heme control in the same plate. […] All of these assays are described in the application. […] “N/T” indicates the test was not performed.
A hrtAB-driven expression system was created in the pXen vector system (Xenogen) (Francis, K. P., D. Joh, C. Bellinger-Kawahara, M. J. Hawkinson, T. F. Purchio, and P. R. Contag. 2000. Monitoring bioluminescent Staphylococcus aureus infections in living mice using a novel luxABCDE construct. Infect Immun 68:3594-3600). This vector contains a promoterless luxCDABE operon from Photorabdus luminescens which produces blue green light when expressed. The luxCDABE encodes for a fatty acid reductase (LuxCDE) that produces a long chain fatty aldehyde which, when combined with cellular flavin mononucleotide, is oxidized by a luciferase (LuxAB) to produce light. Therefore, this system is useful in that it bypasses the need for substrate addition and is capable of generating light in the absence of any added reagents. Furthermore, the luminescent signal produced by the combined activities of LuxAB and LuxCDE is of sufficient intensity to be visualized in unmanipulated intact bacteria.
To establish an assay that measures HssRS-dependent expression of luxCDABE, the promoter for hrtAB upstream of luxCDABE was cloned and transformed this vector (phrtABlux) into wildtype and ΔhssR S. aureus. A promoterless vector (plux) and a plasmid containing luxCDABE under the control of a constitutive promoter (psrtAlux) (Mazmanian, S. K., G. Liu, H. Ton-That, and O. Schneewind. 1999. “Staphylococcus aureus sortase, an enzyme that anchors surface proteins to the cell wall.” Science 285:760-763) were included as negative and positive controls, respectively. Initially, wildtype S. aureus harboring either plux, phrtABlux, or psrtAlux were plated on solid medium that either lacked heme or contained 4 μM heme. Only wildtype S. aureus containing psrtAlux produced light on solid media regardless of the presence or absence of heme. […] Light was not produced by bacteria containing plux in either condition.
To adapt this system for a HTS to measure ligand recognition by HssRS, luminescence of wildtype and ΔhssR harboring the above listed plasmids in liquid media with or without heme was measured. […] Taken together, these experiments establish a whole cell […] assay that can identify small molecule modifiers of HssRS. This screen, in some aspects, can identify molecules that can be used as molecular probes in structure-function analyses to determine the mechanism by which S. aureus sense host heme.
Upon staphylococcal exposure to heme, HssRS senses heme and activates expression of hrtAB. This process can be measured using a reporter assay that employs a vector encoding the light-producing luxCDABE operon under the control of the hrtAB promoter. This assay results in whole cell luminescence upon HssRS-dependent activation of hrtAB, forming the foundation for the development of an assay suitable for high-throughput screens for small molecule activators of HssRS.
To develop an automated HTS format, S. aureus wildtype and ΔhssR harboring reporter constructs (psrtAlux, phrtAlux, plux) can be grown for 15 hours at 37° C. in tryptic soy broth (TSB) containing 10 μg/ml chloramphenicol. The addition of chloramphenicol is useful to ensure that the staphylococci propagate the reporter plasmid upon cell division. Following growth, bacterial cultures can be normalized and 2×10^7 cells (approximately 2 μl) can be added to individual wells of black walled, clear bottomed, 96-well plates. […]

Assay [2] relates to hrtAB-driven expression of the xylE reporter gene. In words: XylE reporter assay (hrtAB promoter-xylE), Newman. It is filed as cell-based, Staphylococcus aureus. The note with it: for XylE (0.5): level of XylE induction at 0.5 uM of the compound; for XylE (5.0): level of XylE induction at 5.0 uM of the compound; for XylE (50.0): level of XylE induction at 50.0 uM of the compound; for XylE (0.05): level of XylE induction at 0.05 uM of the compound. Here is the method: as §1
Compounds that activate HssRS-driven hrtAB expression in the luciferase-based screen can be subjected to two separate counter screens to confirm these compounds as active hits. First, compounds of interest can be tested for their ability to activate expression of hrtAB in the XylE expression assay described hereinbelow. This is an in vitro assay that measures hrtAB-driven expression of the xylE reporter gene. The XylE-based reporter assay utilizes slightly more manipulations than the primary luciferase-based screen. […] It should be appreciated that a shortcoming of this counter screen is that it measures reporter gene expression, which is a similar activity as that measured in the primary assay. To address this shortcoming, compounds that are positive in both XylE- and luciferase-based assays can be subjected to a second counter screen as described hereinbelow.
S. aureus strains harboring the appropriate reporter construct were inoculated into 500 μl of TSB containing 10 μg/ml chloramphenicol in 1.5 ml tubes. Cultures were grown O/N at 37° C. with shaking. Bacteria were pelleted by centrifugation and spent medium was aspirated. The pellet was washed once with 500 μl of 20 mM potassium phosphate, pH 7.6, and resuspended in 150 μl of 100 mM potassium phosphate buffer, pH 8.0, 10% (v/v) acetone, 25 μg/ml lysostaphin. After 20 minute incubation at 37° C. and 5 minute incubation on ice, samples were centrifuged at 20,000 g for 30 minutes at 4° C. 1-10 μl of supernatant was added to a 96-well plate and 200 μl of 100 mM potassium phosphate, pH 8.0, 0.2 mM pyrocatechol was added to each well. Formation of 2-hydroxymuconic semialdehyde was tracked by measuring the absorbance at 375 nm every minute for 30 minutes on a Varian MP 50 microplate reader. Protein concentration in samples was determined by BCA (Pierce). One unit of specific activity of XylE in a sample is defined as the formation of 1 nmol of 2-hydroxymuconic semialdehyde per minute per milligram of cellular protein at 30° C. (Chien, Y., Manna, A. C., Projan, S. J., and Cheung, A. L. 1999, “SarA, a global regulator of virulence determinants in Staphylococcus aureus, binds to a conserved motif essential for sar-dependent gene regulation. J. Biol. Chem. 274, 37169-37176).
The hrtAB intergenic region was fused to the xylE structural gene by PCR-SOE. In the first reaction, primer P1B:[…] and P2B:[…] were used to amplify the hrtAB intergenic region from S. aureus strain Newman genomic DNA. In the second PCR reaction primers P3B:[…] and P4B:[…] were used to amplify the xylE structural gene using pALC1639 template DNA (provided by Dr. Ambrose Cheung) and PCR product purified using a Qiagen gel extraction kit. For the PCRSOE reaction, a 1:300 dilution of purified reaction 1 and reaction 2 PCR products was mixed and amplified by PCR using […]. This yielded a construct in which the hrtAB intergenic region is fused to the xylE gene in such a manner that the position of the start codon for xylE corresponds to the position of the start codon for […] in the hrtAB locus. The hrtAB promoter-xylE fusion DNA was then subcloned into pOS1. As a control we also constructed a promoterless xylE vector. The xylE gene was amplified from pACL1639 template DNA using the primers P1C:[…] and P2C:[…] and then cloned into the pOS1 vector.

Each structure is given as a SMILES string.

Regarding `COc1cc(OC)cc(C(=O)Nc2ccc(-c3nc4cc(C)ccc4o3)cc2)c1`, in assay [1], the activation at 0.0825 µM came out at 345% and the Luminescence worked out at 1765. In addition, in assay [2], the “XylE (0.5)” value came to 0.1, the “XylE (5.0)” value is recorded as 0.6 and the “XylE (50.0)” value is given as 0.
The compound `COc1ccccc1-c1csc(NC(=O)c2ccc(-c3ccccc3)cc2)n1` registered a Luminescence in assay [1] of 1704. Besides, in assay [2], the “XylE (0.5)” value was determined as 0.05, the “XylE (5.0)” value is listed as 1 and the “XylE (50.0)” value is on record as 1.
Take `COc1cc(/C=C/c2ccc3cccc(O)c3n2)c(Cl)cc1O`: in assay [1], the activation at 0.0825 µM is 533% and the Luminescence was 1722. Also, in assay [2], the “XylE (0.5)” value amounted to 1, the “XylE (5.0)” value stood at 0.5 and the “XylE (50.0)” value is 0.
For `CCc1ccc2oc(-c3ccc(NC(=O)c4ccccc4OC)cc3)nc2c1`, the Luminescence in assay [1] is on record as 2392. Moreover, in assay [2], the “XylE (0.5)” value is on record as 0.05, the “XylE (5.0)” value was 2 and the “XylE (50.0)” value was 3.
On the same counts, the results for `CC(C)(C)c1cc2c(c(C(C)(C)C)c1)OC(c1cc([N+](=O)[O-])ccc1O)N2` (centres unmarked) are 1805, 0.04, 0 and 0.04.
On the same counts, the results for `Cc1c(NC(=O)c2ccc(Cl)c([N+](=O)[O-])c2)cccc1-c1nc2ccccc2o1` are 1912, 0.06, 0.1 and 0.5.
`FC(F)(F)c1cccc(Nc2nc(-c3cccnc3)nc3ccccc23)c1` came in with a Luminescence in assay [1] of 1616. Besides, in assay [2], the “XylE (0.5)” value was determined as 0.02, the “XylE (5.0)” value worked out at 0.05 and the “XylE (50.0)” value amounted to 0.02.
Regarding `Oc1ccc(Nc2n[n+](-c3ccc(Cl)cc3)cc3ccccc23)cc1`, the Luminescence in assay [1] was 2098. In assay [2], the “XylE (0.05)” value is 0.5, the “XylE (0.5)” value was determined as 6, the “XylE (5.0)” value is 1 and the “XylE (50.0)” value is reported as 0.6.
In the same order, the values of `O=C1C2=C(Nc3nn(-c4ccccc4)c(O)c3C2c2ccc([N+](=O)[O-])cc2)c2ccccc21` (centres unmarked) are 2608, 0.4, 1, 0.3 and 1.
As to `Oc1ccccc1-c1nc(NC2CCCC2)c2ccccc2n1`, in assay [1], the activation at 0.0825 µM amounted to 591% and the Luminescence stood at 1637. In addition, in assay [2], the “XylE (0.5)” value was determined as 0.09, the “XylE (5.0)” value is 0.02 and the “XylE (50.0)” value is 0.
`COc1ccc(/C=C/c2nc3ccccc3c(=O)n2-c2cccc(C(=O)O)c2)cc1`: in assay [1], the activation at 0.0825 µM was 705% and the Luminescence is reported as 1995. In assay [2], the “XylE (0.5)” value amounted to 0.04, the “XylE (5.0)” value worked out at 0.08 and the “XylE (50.0)” value was determined as 0.05.
In the case of `Cc1cccc(NC(=O)c2cc3ccccc3cc2O)c1`, in assay [1], the activation at 0.0825 µM is 217% and the Luminescence amounted to 794. Besides, in assay [2], the “XylE (0.05)” value was 0.02, the “XylE (0.5)” value was 0.09, the “XylE (5.0)” value is listed as 0.1 and the “XylE (50.0)” value is given as 0.02.
In turn, `CCOc1ccc(NC(=O)c2sc3nc(C)nc(N4CCCCC4)c3c2C)cc1` returned a Luminescence in assay [1] of 2277. Further, in assay [2], the “XylE (0.05)” value came out at 1, the “XylE (0.5)” value is on record as 0.07, the “XylE (5.0)” value is 1 and the “XylE (50.0)” value is given as 1.
Consider `Cc1ccc2c(c1)C(c1ccccc1)=NNC(c1ccccc1)=N2`, for which the Luminescence in assay [1] was found to be 2763. In addition, in assay [2], the “XylE (0.5)” value is 0, the “XylE (5.0)” value amounted to 0.2 and the “XylE (50.0)” value was 0.4.
For the compound `Cc1cc(O)c(NC(=S)NC(=O)c2ccc(C(C)(C)C)cc2)cc1C`, in assay [1], the activation at 0.0825 µM was 127% and the Luminescence is recorded as 808. In assay [2], the “XylE (0.05)” value came out at 0.09, the “XylE (0.5)” value is 0.2, the “XylE (5.0)” value was determined as 0.2 and the “XylE (50.0)” value is listed as 0.3.

The values above are taken from patent US8263642B2, “Antimicrobial compounds and methods of use thereof” (Vanderbilt University, priority 2008, dated 2012).
